Test results from US20050053580A1, “Use of microbiology non-viral substances for treating acne” (priority 2001, published 2005).

Columns and labels:
androgen receptor = test: Androgen receptor expression by immunoblotting in SZ95 sebocytes; type: cell-based, human; conditions: for inhibition of the androgen receptor expression compared to native SZ95 sebocytes: 1.0 μM, after 14 h; for protein expression of the androgen receptor: 0.4 and 1.0 μM, after 24 hours
SZ95 sebocytes = test: SZ95 sebocyte proliferation, crystal violet assay; type: cell-based, human; conditions: for inhibition of the testosterone-induced stimulation of the SZ95 sebocyte proliferation: 10^−7 M testosterone, stimulation period 44 hours; for increase in proliferation: after 72 h, native SZ95 sebocytes
[1] = 1 μM oligonucleotide, 4 h transfection, 14 h recovery

Molecule	inhibition of the androgen receptor expression compared to native SZ95 sebocytes (androgen receptor)	protein expression of the androgen receptor (androgen receptor)	inhibition of the testosterone-induced stimulation of the SZ95 sebocyte proliferation (SZ95 sebocytes; [1])	other results
5′-CTGCACTTCCATCCTTGAGCTTGGC-3′ [Thioate antisense oligonucleotide]	39%	reduced protein expression	inhibited	proliferation pattern in the presence of testosterone (SZ95 sebocytes; [1]): same proliferation pattern as native cells
5′-CTGCCCTTCAATCCCTGAGTTTGGC-3′ (DNA CTGCCCTTCAATCCCTGAGTTTGGC; listed as DNA, chemistry not given here) [mismatch-oligonucleotide, mismatch control oligonucleotide to safeguard antisense specificity, reference compound]				protein expression of the androgen receptor versus non-transfected cells (androgen receptor; four hours' transfection with DOTAP, recovery phase of at least 24 hours, Western blot): comparable
5′-GCCAAGCUCAAGGAUGGAAGUGCAG-3′ (antisense GCCAAGCUCAAGGAUGGAAGUGCAG; 2'-O-methylribose, further chemistry not given here) [methylribosyl antisense oligonucleotide against the androgen receptor]	87%	reduced protein expression	highly significant	
C[C@]12CCC(=O)C[C@@H]1CC[C@@H]1[C@@H]2CC[C@]2(C)[C@@H](O)CC[C@@H]12 [DHT, 5α-dihydrotestosterone, reference compound]				increase in proliferation (SZ95 sebocytes; 10^−7-10^−6 DHT): significant
C[C@]12CC[C@H]3[C@@H](CCC4=CC(=O)CC[C@@]43C)[C@@H]1CC[C@@H]2O [testosterone, reference compound]				increase in proliferation (SZ95 sebocytes; 10^−7 and 5×10^−7 M testosterone): significant
